Test [1] can be described thus: ATP-based viability loss in HEK293T cells – cell-based, CellTiter-Glo luminescence, dry powder, set 2, cytotoxicity control, dose response (AID 720595). It counts as functional. The settings on record: HEK293.
The nature of test [2]: ATP-based viability loss in HeLa cells – cell-based, CellTiter-Glo luminescence, dry powder, set 2, cytotoxicity control, dose response (AID 720593). The format is functional.
In test [3] the target is T1, Methionyl-tRNA synthetase, putative (Trypanosoma brucei brucei, UniProt Q38C91).
T1 sequence (Q38C91 whole entry): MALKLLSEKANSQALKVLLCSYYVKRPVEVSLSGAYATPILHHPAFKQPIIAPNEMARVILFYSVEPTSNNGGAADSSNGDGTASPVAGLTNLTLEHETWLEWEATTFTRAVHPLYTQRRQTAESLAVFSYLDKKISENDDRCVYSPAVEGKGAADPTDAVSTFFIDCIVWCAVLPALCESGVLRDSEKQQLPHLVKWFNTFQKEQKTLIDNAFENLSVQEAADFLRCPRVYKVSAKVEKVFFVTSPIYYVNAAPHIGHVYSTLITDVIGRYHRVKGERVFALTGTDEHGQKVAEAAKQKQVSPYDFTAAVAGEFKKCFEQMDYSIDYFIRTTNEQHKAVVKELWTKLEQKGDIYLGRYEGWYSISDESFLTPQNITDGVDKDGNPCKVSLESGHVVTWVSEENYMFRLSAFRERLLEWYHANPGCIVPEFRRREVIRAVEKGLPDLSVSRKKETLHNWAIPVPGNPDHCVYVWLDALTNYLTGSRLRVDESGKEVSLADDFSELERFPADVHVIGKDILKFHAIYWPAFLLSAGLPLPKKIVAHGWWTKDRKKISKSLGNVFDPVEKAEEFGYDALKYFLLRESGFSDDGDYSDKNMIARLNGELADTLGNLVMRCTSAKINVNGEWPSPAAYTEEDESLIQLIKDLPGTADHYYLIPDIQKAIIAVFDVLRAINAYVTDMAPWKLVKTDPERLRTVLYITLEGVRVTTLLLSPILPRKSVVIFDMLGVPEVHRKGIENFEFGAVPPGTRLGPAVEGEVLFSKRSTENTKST
The format is functional, Trypanosoma brucei brucei strain 927/4 GUTat10.1.

For test [4], the target named is T1, Methionyl-tRNA synthetase, putative. The format is functional, Trypanosoma brucei brucei strain 927/4 GUTat10.1. The source holds these as a separate data set.
Test [5] in a line: Late stage counterscreen for inhibitors of Trypanosoma brucei methionyl tRNA synthetase (MetRS): Luminescence-based cell-based high throughput dose response assay to identify compounds that are cytotoxic to Jurkat human T lymphocyte cells. It counts as functional.
Test [6] is described as follows: Counterscreen for inhibitors of Trypanosoma brucei methionyl tRNA synthetase (MetRS): Luminescence-based cell-based high throughput dose response assay to identify compounds that are cytotoxic to Jurkat human T lymphocyte cells. The format is functional.
A short description of test [7]: HIV-1 Vif–A3G interaction blockers – biochemical, TR-FRET, GST-Vif 1-94, biotin-A3G peptide, dose response retest, primary screen (AID 1117319).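 Note: TR-FRET signal of purified GST-Vif binding a biotinylated A3G peptide; inhibitors lower the FRET signal by blocking Vif and A3G binding.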 It counts as functional.
Test [8] addresses T2, Low molecular weight phosphotyrosine protein phosphatase (Homo sapiens, UniProt P24666).
T2 sequence (P24666 whole entry): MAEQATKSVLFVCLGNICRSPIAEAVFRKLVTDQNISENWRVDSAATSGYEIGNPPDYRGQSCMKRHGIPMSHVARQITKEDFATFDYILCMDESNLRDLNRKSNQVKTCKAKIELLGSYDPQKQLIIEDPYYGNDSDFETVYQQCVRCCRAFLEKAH
The test is described as follows: inhibition of human LMPTP enzyme activity – biochemical, absorbance, pNPP substrate, LMPTP-A isoform, set 2, orthogonal assay, dose response (AID 743308). It counts as functional.

Test [9] has as its target T2, Low molecular weight phosphotyrosine protein phosphatase. Briefly: inhibition of LMPTP-A enzymatic activity – biochemical, OMFP substrate, fluorescence intensity, set 2, dose response (AID 743307). The format is functional.
The target of another test is Transthyretin (Homo sapiens, UniProt P02766). Briefly: Luminescence-based cell-based high throughput dose response assay to identify activators of Transthyretin (TTR) transcription. It counts as functional.
Test [10] is described as follows: blockers of HIV-1 envelope-mediated cell-cell fusion – cherry-pick, dose response (AID 652057). The format is functional, cell-based.
Test [11] can be described thus: blockers of HIV-1 ZM109 envelope-driven cell-cell fusion – HeLa effector, CEM target cells, luciferase, cherry-pick, dose response (AID 652058).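 Note: luciferase signal from HIV-1 Env mediated cell-cell fusion of effector and target cells.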 It counts as functional, cell-based.
A short description of test [12]: inhibition of Env-driven cell fusion – HIV entry, plate reader, dry powder, dose response (AID 687023). The format is functional, cell-based.

The source made the active and inactive calls.

Turning to `O=C(Cc1ccccc1)NC(c1ccco1)c1ccc2cccnc2c1O` (stereo not drawn), the AC50 was 2.56 µM (active) in test [1] and 18.1 µM (active) in test [2].

Consider `O=C(NCc1nc2ccccc2[nH]1)C1=C[C@@H](c2ccccc2)C[C@@H](OCc2ccc(CO)cc2)O1`, for which the IC50 in test [3] is 2.08 µM (active); in [4] it was 835 nM (active); in test [5] it was > 83.3 µM (inactive); in [6], 81 µM (inactive).

In the case of `CC(C)(C)CN1CCNC(=O)C1CC(=O)NCCc1ccccc1C(F)(F)F` (stereo not drawn), the IC50 in test [7] is > 100 µM (active).

On to `c1ccc(-c2nc(N3CCOCC3)c3ccccc3n2)cc1`, for which the IC50 in [8] and in test [9] was > 80 µM (inactive) each time.

For the molecule `Cc1ccc([C@H]2C[C@@H](O)[C@H](n3cc(-c4ccc(F)cc4)nn3)CN2C(=O)c2cccs2)cc1`, the EC50 on Transthyretin was > 167 µM (inactive).

Consider `Cc1noc(C)c1S(=O)(=O)Nc1cccc2c1O[C@H](CN(C)Cc1ccc(C(F)(F)F)cc1)[C@H](C)CN([C@H](C)CO)C2=O`, for which the AC50 in test [10] was 731 nM (active); in test [11], 935 nM (active); in [12] it was 2.42 µM (active).

For the origin of these results see ChEMBL document CHEMBL1201862, “PubChem BioAssay data set” (2004).
